According to article PMC8206134, “Structural basis of mechano-chemical coupling by the mitotic kinesin KIF14” (Nature Communications, 2021):

What was measured:
[1] = target: T1, KIF14 K735 (MT-K735) (Mus musculus, UniProt L0N7N1); assay: cryo-EM structure; format: binding; settings: microtubule-bound; 4 mM ADP plus 2 mM AlCl3 and 10 mM KF; AlFx and Mg2+ densities near noise; open* conformation
T1 construct: core motor domain N391-L735, no neck-linker; GST tag cleaved (PreScission), E. coli BL21(DE3) pLysS; monomer; with Tubulin alpha chain (Sus scrofa, porcine brain); Tubulin beta chain (Sus scrofa, porcine brain)
T1 sequence (L0N7N1 391-735): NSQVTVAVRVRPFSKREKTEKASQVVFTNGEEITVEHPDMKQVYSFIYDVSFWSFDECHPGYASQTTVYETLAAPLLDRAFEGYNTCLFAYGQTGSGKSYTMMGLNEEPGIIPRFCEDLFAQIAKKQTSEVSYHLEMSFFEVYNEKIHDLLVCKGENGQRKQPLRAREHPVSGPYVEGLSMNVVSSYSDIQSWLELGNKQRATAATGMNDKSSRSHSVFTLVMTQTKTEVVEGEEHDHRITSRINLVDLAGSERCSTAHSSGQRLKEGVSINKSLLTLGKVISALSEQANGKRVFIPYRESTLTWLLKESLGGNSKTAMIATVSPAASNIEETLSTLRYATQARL

[2] = target: T2, KIF14 K743 (MT-K743) (Mus musculus, UniProt L0N7N1); assay: malachite green phosphate assay; format: biochemical; settings: 1 mM ATP, 2 uM paclitaxel-stabilised microtubules, 50 nM KIF14, 1 mM MgCl2, PIPES pH 6.8
T2 construct: motor domain plus 8 neck-linker residues N391-N743; GST tag cleaved (PreScission), E. coli BL21(DE3) pLysS; monomer; with Tubulin alpha chain (Sus scrofa, porcine brain); Tubulin beta chain (Sus scrofa, porcine brain)
T2 sequence (L0N7N1 391-743): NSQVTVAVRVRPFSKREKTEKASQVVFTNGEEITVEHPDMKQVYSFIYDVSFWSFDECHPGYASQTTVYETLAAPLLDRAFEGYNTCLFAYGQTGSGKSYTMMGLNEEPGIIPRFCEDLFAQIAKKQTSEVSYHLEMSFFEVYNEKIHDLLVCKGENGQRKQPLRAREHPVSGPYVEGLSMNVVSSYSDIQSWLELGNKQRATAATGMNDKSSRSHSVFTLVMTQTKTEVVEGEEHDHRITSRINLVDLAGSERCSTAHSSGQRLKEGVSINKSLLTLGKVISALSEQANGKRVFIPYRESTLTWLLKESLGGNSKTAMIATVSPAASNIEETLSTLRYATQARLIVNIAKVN
Text: (§1) malachite green phosphate assay on KIF14 […] (MT-[…]) | Microtubule-stimulated ATPase rate of […], […], […], and […] constructs

[3] = target: T1, KIF14 K735 (MT-K735); assay: malachite green phosphate assay; format: biochemical; settings: 1 mM ATP, 2 uM paclitaxel-stabilised microtubules, 50 nM KIF14, 1 mM MgCl2, PIPES pH 6.8
Text: as §1

[4] = target: T3, KIF14 K748 (MT-K748) (Mus musculus, UniProt L0N7N1); assay: malachite green phosphate assay; format: biochemical; settings: 1 mM ATP, 2 uM paclitaxel-stabilised microtubules, 50 nM KIF14, 1 mM MgCl2, PIPES pH 6.8
T3 construct: motor domain plus 13 neck-linker residues N391-A748; GST tag cleaved (PreScission), E. coli BL21(DE3) pLysS; monomer; with Tubulin alpha chain (Sus scrofa, porcine brain); Tubulin beta chain (Sus scrofa, porcine brain)
T3 sequence (L0N7N1 391-748): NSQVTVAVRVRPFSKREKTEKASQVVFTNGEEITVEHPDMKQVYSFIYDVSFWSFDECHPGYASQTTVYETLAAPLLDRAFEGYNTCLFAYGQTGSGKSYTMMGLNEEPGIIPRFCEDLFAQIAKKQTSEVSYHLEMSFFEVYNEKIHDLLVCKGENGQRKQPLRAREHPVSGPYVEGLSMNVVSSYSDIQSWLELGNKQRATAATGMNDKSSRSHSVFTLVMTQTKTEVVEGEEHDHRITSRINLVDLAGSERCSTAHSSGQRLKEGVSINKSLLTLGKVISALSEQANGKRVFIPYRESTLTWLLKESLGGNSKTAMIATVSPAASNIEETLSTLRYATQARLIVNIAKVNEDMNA
Text: as §1

[5] = target: T4, KIF14 K755 (MT-K755) (Mus musculus, UniProt L0N7N1); assay: malachite green phosphate assay; format: biochemical; settings: 1 mM ATP, 2 uM paclitaxel-stabilised microtubules, 50 nM KIF14, 1 mM MgCl2, PIPES pH 6.8
T4 construct: motor domain, neck-linker and part of first CC1 heptad N391-K755; GST tag cleaved (PreScission), E. coli BL21(DE3) pLysS; with Tubulin alpha chain (Sus scrofa, porcine brain); Tubulin beta chain (Sus scrofa, porcine brain)
T4 sequence (L0N7N1 391-755): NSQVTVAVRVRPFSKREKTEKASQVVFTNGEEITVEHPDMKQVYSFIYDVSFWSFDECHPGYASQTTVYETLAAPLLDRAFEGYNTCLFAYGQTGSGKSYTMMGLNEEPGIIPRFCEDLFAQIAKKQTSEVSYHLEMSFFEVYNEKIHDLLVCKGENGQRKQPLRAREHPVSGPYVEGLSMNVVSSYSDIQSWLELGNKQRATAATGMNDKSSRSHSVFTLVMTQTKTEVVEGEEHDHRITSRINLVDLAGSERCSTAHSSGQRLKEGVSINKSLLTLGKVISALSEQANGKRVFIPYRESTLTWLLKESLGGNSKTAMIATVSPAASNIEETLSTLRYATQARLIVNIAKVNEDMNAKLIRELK
Text: as §1

[6] = target: the molecule itself; assay: SEC; size-exclusion chromatography of the KIF14 constructs alone in solution, elution compared with protein standards (66, 44 and 25 kDa)

Nc1ncnc2c1ncn2[C@@H]1O[C@H](COP(=O)(O)OP(=O)(O)O)[C@@H](O)[C@H]1O [ADP]
cryo-EM structure [1]: The MT-K735-AAF and MT-K743-AAF maps contain strong densities associated with ADP

Nc1ncnc2c1ncn2[C@@H]1O[C@H](COP(=O)(O)OP(=O)(O)OP(=O)(O)O)[C@@H](O)[C@H]1O [ATP]
Microtubule-stimulated ATPase rate [2]: Microtubule-stimulated ATPase rate of K735, K743, K748, and K755 constructs
Microtubule-stimulated ATPase rate [3]: Microtubule-stimulated ATPase rate of K735, K743, K748, and K755 constructs
Microtubule-stimulated ATPase rate [4]: Microtubule-stimulated ATPase rate of K735, K743, K748, and K755 constructs
Microtubule-stimulated ATPase rate [5]: Microtubule-stimulated ATPase rate of K735, K743, K748, and K755 constructs

B1: KIF14 construct K772 (residues Asn-391 to Asp-772) (domain or fragment, mouse, UniProt L0N7N1 391-772, looked up)
chain: NSQVTVAVRVRPFSKREKTEKASQVVFTNGEEITVEHPDMKQVYSFIYDVSFWSFDECHPGYASQTTVYETLAAPLLDRAFEGYNTCLFAYGQTGSGKSYTMMGLNEEPGIIPRFCEDLFAQIAKKQTSEVSYHLEMSFFEVYNEKIHDLLVCKGENGQRKQPLRAREHPVSGPYVEGLSMNVVSSYSDIQSWLELGNKQRATAATGMNDKSSRSHSVFTLVMTQTKTEVVEGEEHDHRITSRINLVDLAGSERCSTAHSSGQRLKEGVSINKSLLTLGKVISALSEQANGKRVFIPYRESTLTWLLKESLGGNSKTAMIATVSPAASNIEETLSTLRYATQARLIVNIAKVNEDMNAKLIRELKAEIEKLKAAQRSNRNID
notes: KIF14, mouse (Mus musculus), full length 1674 amino acids; Dimer in solution by size-exclusion chromatography; source: E. coli BL21 (DE3) pLysS, purified (glutathione resin, cleaved on beads with PreScission protease)
stoichiometry N [6]: 2
